Molecular target: T1, Nox4 (Homo sapiens, UniProt Q9NPH5)
T1 construct: expressed in transfected cells
T1 sequence (Q9NPH5 1-578): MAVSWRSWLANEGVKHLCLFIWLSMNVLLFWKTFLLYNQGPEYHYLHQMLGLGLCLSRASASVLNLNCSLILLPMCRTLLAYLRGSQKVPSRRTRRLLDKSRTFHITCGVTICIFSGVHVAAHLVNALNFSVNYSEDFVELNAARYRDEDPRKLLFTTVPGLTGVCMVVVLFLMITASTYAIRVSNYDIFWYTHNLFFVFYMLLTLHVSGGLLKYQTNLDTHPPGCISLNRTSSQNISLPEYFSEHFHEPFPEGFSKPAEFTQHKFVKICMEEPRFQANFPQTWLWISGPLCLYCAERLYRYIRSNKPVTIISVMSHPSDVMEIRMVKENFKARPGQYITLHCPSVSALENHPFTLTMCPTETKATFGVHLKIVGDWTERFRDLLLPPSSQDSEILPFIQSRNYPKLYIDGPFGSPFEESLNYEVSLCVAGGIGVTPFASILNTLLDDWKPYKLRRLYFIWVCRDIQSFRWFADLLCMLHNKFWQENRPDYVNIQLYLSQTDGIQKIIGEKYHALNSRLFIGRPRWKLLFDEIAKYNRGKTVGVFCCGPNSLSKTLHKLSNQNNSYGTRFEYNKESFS
T1 sequence (P13498 1-195 partner): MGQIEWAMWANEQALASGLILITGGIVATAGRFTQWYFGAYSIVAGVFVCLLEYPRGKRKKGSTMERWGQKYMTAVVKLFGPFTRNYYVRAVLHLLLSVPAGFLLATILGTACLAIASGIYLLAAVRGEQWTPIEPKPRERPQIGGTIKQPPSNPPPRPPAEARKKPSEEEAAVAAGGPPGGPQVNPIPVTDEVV
Test: Inhibition of Nox4-dependent H2O2 production in HEK/Nox4 cells, Amplex Red assay
Type: cell-based
Details: 1 h, HEK/Nox4 cells, DMSO vehicle = 1.000, n = 3-10, read-out: H2O2 production relative to vehicle control, Mean; for remaining activity at 1 µM: 1 μM final concentration; for remaining activity at 5 µM: 5 μM final concentration; for remaining activity at 10 µM: 10 μM final concentration
Experimental: A high-throughput screening (HTS) assay was established for Nox4 inhibition, utilizing HEK293 cells that stably over-express Nox4 (HEK/Nox4 cells), which generate high levels of H2O2(Cheng G et al, Gene: 2001, p. 131-140). Over 30,000 compounds have been screened and medicinal chemistry efforts have led to the synthesis of numerous analogs and the identification of a chemically distinct series of selective Nox4 inhibitors. […] IC-50 was evaluated for UANox048 (FIG. 1B).
HEK cells stably transfected to overexpress Nox4 were treated with varying concentrations of test compounds, DPI (all-Nox inhibitor positive control), or DMSO (vehicle control) and incubated for 1 h (FIG. 1). (FIG. 1A) H2O2 presence was evaluated by Amplex Red assay. […] Values represent means±SEM; n=4. P values were calculated by student's two-tailed t test. *p<0.05, **p<0.01, *** p<0.001.

| Compound | remaining activity at 1 µM [%] | remaining activity at 5 µM [%] | remaining activity at 10 µM [%] |
| --- | --- | --- | --- |
| CC(CNS(=O)(=O)c1ccc(Oc2ccc(C(F)(F)F)cn2)cc1)N1CCc2ccccc21 (stereo not drawn) [UANOX070, N-(2-(indolin-1-yl)propyl)-4-((5-(trifluoromethyl)pyridin-2-yl)oxy)benzenesulfonamide] | 91.4 | 77.9 | 69.3 |
| CN1CCN(C(=O)NCCN2CCc3ccccc32)CC1 [UANOX011, N-(2-(indolin-1-yl)ethyl)-4-methylpiperazine-1-carboxamide] | 98 | 97.9 | 95.6 |
| CCN(CC)C(=O)N1CCN(CCN2CCc3ccccc32)CC1 [UANOX066] | 95.3 | 72.2 | 73.1 |
| CC(CNC(=O)c1csc(-c2ccncc2)n1)N1CCc2ccccc21 (stereo not drawn) [UANOX033, N-(2-(indolin-1-yl)propyl)-2-(pyridin-4-yl)thiazole-4-carboxamide] | 100 | 91.2 | 86.7 |
| CC(C)(CNS(=O)(=O)c1ccc(Oc2ccc(C(F)(F)F)cn2)cc1)N1CCc2ccccc21 [UANOX088] | 102 | 90.3 | 79.6 |
| Fc1ccccc1CN1CCN(CCN2CCc3ccccc32)CC1 [UANOX067, 1-(2-(4-(2-fluorobenzyl)piperazin-1-yl)ethyl)indoline] | 93.9 | 91.2 | 85.1 |
| COc1cccc(-c2ccc3c(c2)CCN3C(C)CNS(=O)(=O)N2CCN(C)CC2)c1 (stereo not drawn) [UANOX0254, N-(2-(5-(3-methoxyphenyl)indolin-1-yl)propyl)-4-methylpiperazine-1-sulfonamide] | 87.8 | 88 | 76.3 |
| CC(CNC(=O)c1csc(-c2ccccc2)n1)N1CCc2ccccc21 (stereo not drawn) [UANOX055, N-(2-(indolin-1-yl)propyl)-2-phenylthiazole-4-carboxamide] | 90.2 | 90.8 | 86.8 |
| CC(CNS(=O)(=O)c1ccc(OC(F)(F)F)cc1)N1CCc2ccccc21 (stereo not drawn) [UANOX049, N-(2-(indolin-1-yl)propyl)-4-(trifluoromethoxy)benzenesulfonamide] | 87.1 | 78.4 | 71.4 |
| CC(CNS(=O)(=O)N(C)C)N1CCc2ccccc21 (stereo not drawn) [UANOX007, N—(N,N-dimethylaminosulfonyl)-2-(indolin-1-yl)propane-1-amine] | 103 | 91.6 | 90.8 |
| CC(C)(CNS(=O)(=O)c1ccc(F)c(F)c1)N1CCc2ccccc21 [UANOX087, 3,4-difluoro-N-(2-(indolin-1-yl)-2-methylpropyl)benzenesulfonamide] | 99.7 | 88.3 | 74.1 |
| O=C(CCN1CCN(S(=O)(=O)N2CCOCC2)CC1)N1CCc2ccccc21 [UANOX030] | 108 | 108 | 104 |
| CC(CNC(=O)N1CCCC1)N1CCc2ccccc21 (stereo not drawn) [UANOX020, N-(2-(indolin-1-yl)propyl)pyrrolidine-1-carboxamide] | 73.7 | 87 | 86.6 |

Next, values leading:

| remaining activity at 1 µM [%] | remaining activity at 5 µM [%] | remaining activity at 10 µM [%] | Compound |
| --- | --- | --- | --- |
| 92.7 | 83.5 | 73.6 | CC(C)(CNS(=O)(=O)c1ccc(Oc2ccccc2)cc1)N1CCc2ccccc21 [UANOX085, N-(2-(indolin-1-yl)-2-methylpropyl)-4-phenoxybenzenesulfonamide] |
| 90.7 | 81.6 | 71.4 | CC(C)(CNS(=O)(=O)c1ccc(F)cc1)N1CCc2ccccc21 [UANOX086, 4-fluoro-N-(2-(indolin-1-yl)-2-methylpropyl)benzenesulfonamide] |
| 112 | 112 | 110 | CCN(CC)S(=O)(=O)N1CCN(CCC(=O)N2CCc3ccccc32)CC1 [UANOX029, N,N-diethyl-4-(3-(indolin-1-yl)-3-oxopropyl)piperazine-1-sulfonamide] |
| 90.8 | 85.6 | 77 | CC(CNS(=O)(=O)c1ccc(Oc2ccccc2)cc1)N1CCc2ccccc21 (stereo not drawn) [UANOX071, N-(2-(indolin-1-yl)propyl)-4-phenoxybenzenesulfonamide] |
| 82.2 | 82.5 | 74.1 | CCN(CC)C(=O)NCC(C)N1CCc2ccccc21 (stereo not drawn) [UANOX006, 1,1-diethyl-3-(2-(indolin-1-yl)propyl)urea] |
| 108 | 112 | 111 | CN(C)S(=O)(=O)N1CCN(CC(=O)N2CCc3ccccc32)CC1 [UANOX028, 4-(2-(indolin-1-yl)-2-oxoethyl)-N,N-dimethylpiperazine-1-sulfonamide] |
| 88.7 | 75.8 | 66.4 | O=S(=O)(c1ccc(OC(F)(F)F)cc1)N1CCN(CCN2CCc3ccccc32)CC1 [UANOX062, 1-(2-(4-((4-(trifluoromethoxy)phenyl)sulfonyl)piperazin-1-yl)ethyl)indoline] |
| 91.5 | 81.4 | 74.1 | CC(CNC(=O)N1CCN(C)CC1)N1CCc2ccccc21 (stereo not drawn) [UANOX019, N-(2-(indolin-1-yl)propyl)-4-methylpiperazine-1-carboxamide] |
| 89.6 | 65.1 | 58.4 | O=S(=O)(NCCN1CCc2ccccc21)c1ccc(Oc2ccccc2)cc1 [UANOX079, N-(2-(indolin-1-yl)ethyl)-4-phenoxybenzenesulfonamide] |
| 99.4 | 101 | 88.2 | O=S(=O)(NCCN1CCc2ccccc21)N1CCCC1 [UANOX004, N-(2-(indolin-1-yl)ethyl)pyrrolidine-1-sulfonamide] |
| 88.8 | 67 | 55.8 | O=S(=O)(NCCN1CCc2ccccc21)c1ccc(F)c(F)c1 [UANOX081, 3,4-difluoro-N-(2-(indolin-1-yl)ethyl)benzenesulfonamide] |
| 99.5 | 106 | 103 | CCN(CC)S(=O)(=O)NCCN1CCc2ccccc21 [UANOX001, N—(N,N-diethylaminosulfonyl)-2-(indolin-1-yl)ethan-1-amine] |
| 98.4 | 77.9 | 67.8 | CC(CNS(=O)(=O)N1CCCC1)N1CCc2ccccc21 (stereo not drawn) [UANOX008, N-(2-(indolin-1-yl)propyl)pyrrolidine-1-sulfonamide] |
| 90.8 | 70.7 | 60.6 | N#Cc1ccc(S(=O)(=O)NCCN2CCc3ccccc32)cc1 [UANOX082, 4-cyano-N-(2-(indolin-1-yl)ethyl)benzenesulfonamide] |
| 113 | 113 | 112 | O=C(CN1CCN(S(=O)(=O)N2CCCCC2)CC1)N1CCc2ccccc21 [UANOX027, 1-(indolin-1-yl)-2-(4-(piperidin-1-ylsulfonyl)piperazin-1-yl)ethan-1-one] |
| 112 | 109 | 105 | CN(C)S(=O)(=O)N1CCN(CCC(=O)N2CCc3ccccc32)CC1 [UANOX032, 4-(3-(indolin-1-yl)-3-oxopropyl)-N,N-dimethylpiperazine-1-sulfonamide] |
| 98.4 | 108 | 100 | O=C(CNC1CCCCCC1)N1CCc2ccccc21 [UANOX023, 2-(cycloheptylamino)-1-(indolin-1-yl)ethan-1-one] |

Reference: US10654802B2, “Indoline derivatives and method for using and producing the same” (ARIZONA BOARD OF REGENTS ON BEHALF OF THE UNIVERSITY OF …, priority 2016, dated 2020)
